# Source: patent US20070135453A1, “6-(2,4,6-Trihalophenyl)triazolopyrimidines, their preparation and their use for controlling harmful fungi, and compositions comprising these compounds” (BASF Aktiengesellschaft, priority 2003, published 2007)
# Legend:
# Pyrenophora teres = assay: Activity against net blotch of barley caused by Pyrenophora teres, protective application; format: in vivo; details: 250 ppm, protective spray, assessed after 6 days, untreated plants 90% infected
# Method: (§1) The active compounds were prepared as a stock solution with 25 mg of active compound which was made up to 10 ml using a mixture of acetone and/or DMSO and the emulsifier Uniperol® EL (wetting agent having emulsifying and dispersing action based on ethoxylated alkylphenols) in a volume ratio of solvent/emulsifier of 99 to 1.
# (§2) The mixture was then made up with water to 100 ml. This stock solution was diluted with the solvent/emulsifier/water mixture described to the concentration of active compounds stated below.
# Use Example 1—Activity Against Net blotch of Barley Caused by Pyrenophora teres, Protective Application
# Leaves of potted barley seedlings of the cultivar “Hanna” were sprayed to runoff point with an aqueous suspension having the concentration of active compounds stated below. 24 hours after the spray coating had dried on, the test plants were inoculated with an aqueous spore suspension of Pyrenophora [syn. Drechslera]teres, the net blotch pathogen. The test plants were then placed in a greenhouse at temperatures between 20 and 24° C. and 95 to 100% relative atmospheric humidity. After 6 days, the extent of the development of the disease was determined visually in % infection of the entire leaf area.
# Botrytis cinerea = assay: Activity against gray mold on bell-pepper leaves caused by Botrytis cinerea, protective application; format: in vivo; details: 250 ppm, protective spray, assessed after 5 days, untreated plants 100% infected
# Method: as §1, §2
# Use Example 2—Activity Against Gray Mold on Bell-Pepper Leaves Caused by Botrytis cinerea, Protective Application
# Bell-pepper seedlings of the cultivar “Neusiedler Ideal Elite” were, after 2 to 3 leaves were well developed, sprayed to runoff point with an aqueous suspension having the concentration of active compounds stated below. The next day, the treated plants were inoculated with a spore suspension of Botrytis cinerea which contained 1.7×10^6 spores/ml in a 2% aqueous biomold solution. The test plants were then placed in a dark acclimatized chamber at 22 to 24° C. and high atmospheric humidity. After 5 days, the extent of the fungal infection on the leaves could be determined visually in %.
smiles,measurement,setting,value
"CC1CCN(c2c(-c3c(Cl)cc(Cl)cc3Cl)c(C#N)nc3ncnn23)CC1 [Example 1, 5-cyano-6-(2,4,6-trichlorophenyl)-7-(4-methylpiperidinyl)-1,2,4-triazolo[1,5a]pyrimidine]",infection of the entire leaf area,Pyrenophora teres,about 1%
same,fungal infection on the leaves,Botrytis cinerea,about 7%
